Results reported in publication PMC4823038 (Oncotarget, 2015).
Like-named read-outs stand apart in the source and are kept apart here.

Assays:
[1] = molecular target: CDK1 (Homo sapiens, UniProt P06493); experiment: CDK1 kinase IC50 determination (DELFIA / 33P radiometric); type: biochemical
Description: (§1) Other kinase IC50 determinations for CHK2 and FLT3 were performed using a commercial assay (Z'-Lyte, Invitrogen) or in-house with recombinant human CHK1 on a LabChip® EZ Reader II (PerkinElmer) or CDK1 in a DELFIA assay (PerkinElmer).

[2] = molecular target: T1, CHK2 (Homo sapiens, UniProt O96017); experiment: CHK2 kinase IC50 determination (Z'-Lyte); type: biochemical
T1 construct: purchased Invitrogen
T1 sequence (O96017 whole entry): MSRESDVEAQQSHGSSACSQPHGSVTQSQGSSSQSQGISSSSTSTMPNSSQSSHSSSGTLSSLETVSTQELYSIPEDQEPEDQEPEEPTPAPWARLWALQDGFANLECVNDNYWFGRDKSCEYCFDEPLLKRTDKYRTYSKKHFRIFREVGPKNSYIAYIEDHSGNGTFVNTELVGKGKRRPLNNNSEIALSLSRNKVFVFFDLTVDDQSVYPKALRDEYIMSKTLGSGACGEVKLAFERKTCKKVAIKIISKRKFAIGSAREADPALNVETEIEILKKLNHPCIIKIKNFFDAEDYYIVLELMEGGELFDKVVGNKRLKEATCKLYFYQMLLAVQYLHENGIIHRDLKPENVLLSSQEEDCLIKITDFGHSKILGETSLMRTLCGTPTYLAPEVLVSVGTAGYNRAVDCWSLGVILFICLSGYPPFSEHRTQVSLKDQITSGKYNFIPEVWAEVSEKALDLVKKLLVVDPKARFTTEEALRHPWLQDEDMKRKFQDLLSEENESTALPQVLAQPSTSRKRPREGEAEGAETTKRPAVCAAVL
Description: as §1

[3] = system: 124 human kinases; experiment: 33P radiometric kinase profiling; type: biochemical; settings: 10μM, 124 kinases, ATP at Km
[4] = system: Calu6; experiment: Mitosis induction assay (MIA), abrogation of etoposide-induced G2 checkpoint; type: cell-based; settings: Homo sapiens, Calu-6, mean±SD
Description: (§2) Assays were performed as described. […] Inhibition of intracellular CHK1 activity was measured using a cell based ELISA for the abrogation of an etoposide induced G2 checkpoint (mitosis induction assay, MIA [24]). The IC50 for G2 checkpoint abrogation (MIA) was determined in the presence of nocodazole using UCN01 as a positive control. […] PI values > 1 indicate potentiation of the genotoxic activity.

[5] = system: HT29; experiment: as above; type: cell-based; settings: Homo sapiens, HT-29, mean±SD
Description: as §2

[6] = system: SW620; experiment: as above; type: cell-based; settings: Homo sapiens, SW-620, mean±SD
Description: as §2

[7] = system: cellular CHK1 activity, four cell lines; experiment: MIA, range over four cell lines; type: cell-based; settings: Homo sapiens, read-out: IC50 for cellular CHK1 inhibition (MIA), range
Description: as §2

[8] = system: four human tumor cell lines; experiment: SRB cytotoxicity, range over four cell lines; type: cell-based; settings: read-out: GI50 single-agent, range
[9] = system: pS296 CHK1 in HT29 colon tumor cells; experiment: Western blot of gemcitabine-induced biomarkers in cells; type: cell-based, human; settings: added to gemcitabine
Description: (§3) Western blotting was carried out as described. ELISA assays for pS296 CHK1 and total CHK1 were developed and validated for use in vitro and in tumor homogenates. Tumor samples for ELISA and western blotting were lysed in CHAPS buffer (1% CHAPS in 150mM NaCl, 50mM Tris-HCl pH 8.0, 1mM EDTA, 0.2mM PMSF and 1:50 Sigma Phosphatase inhibitors 2 and 3 and 1:100 Sigma protease cocktail) and immunoblotted. ELISA assays were based on commercially available kits with modifications (Cell Signalling Technologies). For pS296 CHK1 detection the commercial pS317 CHK1 antibody was replaced with a pS296 CHK1 antibody (Cell Signalling Technology). Xenograft tumor homogenate was added in duplicate to 96 well plates (100μl containing 40ug protein) and quantification of the colorimetric readout was determined at 450nm using a PerkinElmer 2103 EnVision Multilabel plate reader.

[10] = system: HT29 colon carcinoma cells; experiment: Cell cycle analysis (BrdU/PI); type: cell-based, human
Description: Cell cycle analysis using propidium iodide and bromodeoxyuridine staining was as described.

[11] = Pharmacokinetics in BALB/c mice; type: in vivo; settings: for bioavailability: BALB/c, 10mg/kg p.o. vs i.v., read-out: oral bioavailability (F)
Description: (§4) Human tumor xenografts were established s.c. in female […]) athymic mice and treated as previously described. […] Compounds were extracted from whole blood, plasma and tissue homogenates with methanol-containing internal standards using established protocols. Drug concentrations were determined using liquid chromatography/tandem mass spectrometry (LC/MS-MS) and pharmacokinetics were calculated using Pharsight WinNonLin software (version 5.2.1) as previously described.

[12] = Plasma protein binding; type: in vitro ADME; settings: mouse, nude mice
[13] = Permeability across CaCo2 cell monolayer; type: in vitro ADME
[14] = Tumor drug concentration in HT29 xenografts; type: in vivo, mice; settings: female, CRTac:Ncr-Fox1(nu) athymic, mouse, oral, 24h following 12.5mg/kg p.o., with gemcitabine
Description: as §4

[15] = system: pS296 CHK1 in HT29 tumor xenografts; experiment: PK-PD biomarker study in HT29 tumor xenografts; type: in vivo, mice; settings: 50 or 100mg/kg p.o. 24h after gemcitabine 100mg/kg i.v.; P < 0.05
Description: as §3

[16] = system: HT29 human colon tumor xenografts; experiment: Antitumor study, HT29 human colon tumor xenografts; settings: HT29
Description: (§5) Compound tolerability and pharmacokinetic investigations were carried out in female BALB/c mice (Charles River). Human tumor xenografts were established s.c. in female CRTac:Ncr-Fox1(nu) athymic mice and treated as previously described. […] Initial treatment groups contained from 6 to 10 mice and animals were inspected daily and tumor size and volume measured every 2 or 3 days. Tumor volume and growth delay were determined as previously described.

[17] = system: SW620 colon cancer xenografts; experiment: Antitumor study, SW620 colon cancer xenografts; type: in vivo, mice
Description: as §5

[18] = system: Calu6 RAS mutant NSCLC human tumor xenograft; experiment: Antitumor study, Calu6 RAS mutant NSCLC xenografts; type: in vivo, mice
Description: Compound tolerability and pharmacokinetic investigations were carried out in female BALB/c mice (Charles River). Human tumor xenografts were established s.c. in female CRTac:Ncr-Fox1(nu) athymic mice and treated as previously described [24, 28]. […] Initial treatment groups contained from 6 to 10 mice and animals were inspected daily and tumor size and volume measured every 2 or 3 days. Tumor volume and growth delay were determined as previously described [28].

[19] = system: pS296 CHK1 in Calu6 xenograft tumors; experiment: PD biomarkers in Calu6 xenograft tumors (western blot); type: in vivo, mice; settings: Calu6 xenografts, 6h after last dose of CCT245737 150mg/kg p.o.
Description: as §3

[20] = system: Eμ-Myc driven B-cell lymphoma; experiment: Eμ-Myc driven transgenic mouse transplant model of B-cell lymphoma; type: in vivo, mice; settings: 150mg/kg p.o. once daily for 9 days
Description: Transgenic Eμ-Myc mice which develop aggressive infiltrating lymphoma were established and monitored as previously described. To generate transgenic Eμ-Myc driven lymphoma allografts, tumor cells from 3 separate tumors were harvested, cells counted and injected via a tail vein. Six mice were set up per tumor to provide 3 control and 3 treated animals, giving a maximum of 9 mice per treatment group. Animals were monitored daily and continuously using RFID transponders to measure temperature, activity and water consumption as previously described. […] Bone marrow cellularity was also determined to check for tumor cell involvement. All mice were handled in compliance with local and national animal welfare guidelines.

[21] = system: Eμ-Myc driven lymphoma; design: method as in PMID 22120667; settings: 5mg/kg × 9 days; cited from earlier work
[22] = Antitumor study, HT29 human colon tumor xenografts; settings: female, mouse, in vivo, iv
Description: as §5

CDK1, sequence (P06493 whole entry): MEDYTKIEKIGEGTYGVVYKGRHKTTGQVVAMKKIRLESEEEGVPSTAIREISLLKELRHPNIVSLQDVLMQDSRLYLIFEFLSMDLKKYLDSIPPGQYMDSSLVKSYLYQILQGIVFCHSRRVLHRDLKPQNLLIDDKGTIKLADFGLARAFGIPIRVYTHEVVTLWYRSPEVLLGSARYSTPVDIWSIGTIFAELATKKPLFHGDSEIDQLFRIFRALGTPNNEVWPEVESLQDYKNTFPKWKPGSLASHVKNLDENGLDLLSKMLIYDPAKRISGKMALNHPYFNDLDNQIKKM
CDK1, sequence (P14635 whole entry partner): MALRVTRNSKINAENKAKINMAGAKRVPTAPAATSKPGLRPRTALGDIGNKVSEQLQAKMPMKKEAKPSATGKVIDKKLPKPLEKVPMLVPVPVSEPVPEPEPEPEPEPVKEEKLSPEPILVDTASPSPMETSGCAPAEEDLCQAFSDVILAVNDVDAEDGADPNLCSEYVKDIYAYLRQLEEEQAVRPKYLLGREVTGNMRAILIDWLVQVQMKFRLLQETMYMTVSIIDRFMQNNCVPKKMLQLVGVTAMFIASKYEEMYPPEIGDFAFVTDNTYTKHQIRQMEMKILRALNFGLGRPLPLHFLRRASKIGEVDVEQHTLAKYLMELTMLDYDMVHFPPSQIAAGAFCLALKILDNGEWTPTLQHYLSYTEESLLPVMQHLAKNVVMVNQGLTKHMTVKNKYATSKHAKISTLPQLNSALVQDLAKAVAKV

SMILES: N#Cc1cnc(Nc2cc(NC[C@H]3CNCCO3)c(C(F)(F)F)cn2)cn1 [CCT245737, (R)-5-((4-((morpholin-2-ylmethyl)amino)-5-(trifluoromethyl)pyridin-2-yl)amino)pyrazine-2-carbonitrile]
- IC50 [1]: 1260 to 2440 nM
- IC50 [2]: 9030 nM
- number of kinases (including CHK1) with > 80% inhibition [3]: 12 kinases
- IC50 [4]: 84 ± 7 nM
- IC50 [5]: 30 ± 12 nM
- IC50 [6]: 220 ± 47 nM
- IC50 [7]: 30 to 220 nM
- GI50 [8]: 410 to 5400 nM
- concentration causing marked loss of pS296 signal [9]: ≥ 0.5 μM
- concentration giving complete inhibition of pS296 signal [9]: ≥ 2 μM
- effect on etoposide-induced G2/M block ([10]; after etoposide 50μM × 1h, increasing concentrations, 24h): abrogated this G2/M block
- effect on cell cycle distribution, alone ([10]; up to 0.5μM for 24h): minimal effects
- kinetics in whole blood (AUC vs dose) ([11]; BALB/c mice): linear kinetics
- plasma clearance ([11]; BALB/c mice, 10mg/kg i.v.): 35 mL/min/kg
- volume of distribution ([11]; BALB/c mice, 10mg/kg i.v.): 0.19 L
- half-life ([11]; BALB/c mice, 10mg/kg i.v., plasma): 2.86 h
- bioavailability ([11]; female, plasma, oral, mouse): 100%
- bioavailability ([11]; female, plasma, po, mouse): 105%
- Kp ([11]; female, mouse, spleen, other: both routes of administration (i.v. and p.o.), 10 mg/kg, BALB/c mice, both routes of administration, read-out: spleen concentration relative to plasma): 10 to 25
- fraction unbound at 10 μM [12]: 0.244
- Papp ([13]; human, Caco-2, CaCo2 cell monolayer, read-out: cell permeability Pe): 25 ×10⁻⁶ cm/s
- active efflux by PGP ([13]; no asymmetry apical > basal or basal > apical): not a substrate for active efflux by PGP
- concentration at 24 h [14]: ≥ 3000 nM
- gemcitabine-induced pS296 CHK1 signal in tumor [15]: significantly reduced
- growth delay ([16]; alone, 150mg/kg p.o. days 1,2,5,6,9,10 (irinotecan study), mean±SD): 1.0 ± 1.0 days
- growth delay ([16]; alone, 150mg/kg p.o. days 1,2,8,9,15,16, mean±SD): 0.3 ± 3.4 days
- body weight loss ([17]; combination with gemcitabine, day 9): 4.3%
- increase in tumor growth delay ([18]; CCT245737 150mg/kg p.o. added to gemcitabine 100mg/kg i.v. + carboplatin 5mg/kg i.p., P < 0.001): 9 days
- weight loss ([18]; combination with gemcitabine + carboplatin, nadir on day 3): 2%
- gemcitabine + carboplatin induced pS296 CHK1 signal in tumor [19]: completely abolished
- effects on normal tissues (lung, bone marrow, kidney) [20]: minimal effects
- tolerability (body weights) [20]: well tolerated
- weight of inguinal, brachial/axillary and mesenteric lymph nodes vs vehicle ([20]; P < 0.05): significantly reduced
- spleen weight ([20]; p < 0.01): increased significantly

SMILES: CN[C@@H]1C[C@H]2O[C@@](C)([C@@H]1OC)n1c3ccccc3c3c4c(c5c6ccccc6n2c5c31)C(=O)N[C@H]4O [UCN01]
- antitumor activity in Eμ-Myc model [21]: clear evidence of tumor growth inhibition
- blood cell count [21]: decreased blood cell count

SMILES: Nc1ccn([C@@H]2O[C@H](CO)[C@@H](O)C2(F)F)c(=O)n1 [gemcitabine]
- MTD [22]: 200 mg/kg
- growth delay ([16]; alone, 100mg/kg i.v. days 0,7,14, mean±SD (Figure 3A)): -0.6 ± 2.7 days
- growth delay ([16]; gemcitabine alone at the MTD of 200mg/kg i.v. (Figure 3B)): 6 days
- growth delay ([16]; gemcitabine alone, fixed dose 100mg/kg i.v. (Figure 3B)): 3 days
- growth delay ([17]; gemcitabine alone 100mg/kg i.v. days 0,4,8): 1.5 ± 2.3 days

SMILES: CCc1c2c(nc3ccc(OC(=O)N4CCC(N5CCCCC5)CC4)cc13)-c1cc3c(c(=O)n1C2)COC(=O)[C@]3(O)CC [irinotecan]
- growth delay ([16]; alone, 25mg/kg i.p. days 0,4,8, mean±SD, n = 6): 6.2 ± 4.6 days
